Measurements: patent publication US20120157494A1, “ISOINDOLYL COMPOUNDS” (priority 2010, published 2012)

Assays:
[1] = target: T1, hP2X7 (Homo sapiens, UniProt Q99572); assay: Intracellular Calcium Flux (FLIPR) Assay; assay type: cell-based; details: 1321N1 cells stably expressing human P2X7; agonist 100 μM BzATP; 20 min equilibration with antagonist; read-out: FLIPR pIC50 hP2X7-1321n1 (converted)
T1 construct: 1321N1 cells stably expressing the full length human P2X7 gene (1321N1-hP2X7); expressed in transfected cells
T1 sequence (Q99572 1-595): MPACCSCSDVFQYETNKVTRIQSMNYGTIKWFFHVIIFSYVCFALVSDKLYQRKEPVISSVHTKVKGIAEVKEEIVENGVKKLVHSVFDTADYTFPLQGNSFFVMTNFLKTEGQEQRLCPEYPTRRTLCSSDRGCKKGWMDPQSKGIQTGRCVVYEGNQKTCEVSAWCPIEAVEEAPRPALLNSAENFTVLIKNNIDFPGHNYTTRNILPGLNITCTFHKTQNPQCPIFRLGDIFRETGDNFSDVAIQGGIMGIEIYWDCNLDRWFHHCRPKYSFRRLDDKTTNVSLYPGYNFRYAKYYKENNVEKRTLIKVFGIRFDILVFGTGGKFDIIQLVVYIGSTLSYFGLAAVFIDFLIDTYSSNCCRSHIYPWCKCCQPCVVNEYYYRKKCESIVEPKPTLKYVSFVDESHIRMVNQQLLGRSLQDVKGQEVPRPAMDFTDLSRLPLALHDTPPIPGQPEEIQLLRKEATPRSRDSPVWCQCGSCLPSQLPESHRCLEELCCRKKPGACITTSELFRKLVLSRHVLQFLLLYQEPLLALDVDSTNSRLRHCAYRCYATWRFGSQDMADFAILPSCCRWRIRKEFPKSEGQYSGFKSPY
Experimental: Stock solutions of compounds were prepared from powders as a 10 mM DMSO stock solution. These solutions were stored at RT during the two week period of these experiments to prevent freeze-thaw of the DMSO stocks. The DMSO stocks were added to the appropriate assay buffer at a concentration of 10 μM, and then diluted serially to the final concentrations that were tested. No observable precipitate was formed at any time during this process. The aqueous solutions of compounds as well as ATP (Sigma A7699) and BzATP (Sigma B6396) were prepared fresh for each day of experiment.
1321N1 cells stably expressing the full length human P2X7 gene (1321N1-hP2X7) and HEK293 cells stably expressing the full length rat P2X7 gene (HEK293-rP2X7) were obtained from the Roche Cell Culture Facility. 1321N1-hP2X7 cells were grown in Dulbecco's Modified Eagle's Medium (DMEM) high glucose supplemented with 10% FBS and 250 μg/mL G418. HEK293-rP2X7 cells were grown in DMEM/F-12 supplemented with 10% FBS, 1 mM CaCl2, 2 mM MgCl2, 2 mM L-Glutamine and 500 μg/ml G418. Cells were split such that they never became >70% confluent.
On the day prior to the experiment, 1321N1-hP2X7 or HEK293-rP2X7 cells were released into suspension with calcium-free PBS+Versene and washed by centrifugation with calcium-free PBS to remove the Versene. Cells were resuspended in growth medium at a density of 2.5×10^5 cells/mL and seeded into black walled, clear bottom 96 well plates (50,000 cells/well) approximately 18 hr prior to intracellular calcium flux experiments.
On the day of the experiment, plates were washed with FLIPR buffer (calcium- and magnesium-free Hank's Balanced Salt Solution (HBSS) supplemented with 10 mM Hepes, 2.5 mM probenecid and 2 mM calcium chloride) using a BIO-TEK 96 channel plate washer and incubated with […] fluo-3 dye at 37° C. for one hr. The dye was then removed by plate washing and the cells were allowed to equilibrate for 20 min at room temperature with antagonist or vehicle (FLIPR buffer). Agonist (100 μM BzATP final concentration for hP2X7; 5 μM BzATP final concentration or rP2X7) was added online with the FLIPR and fluorescence measurements made at 1 sec intervals for 60 sec followed by 3 sec intervals for a further 4 min (5 min total). A final addition of 5 μM ionomycin was made and the maximal BzATP-evoked fluorescence normalized to the maximal ionomycin-evoked fluorescence.

IC50 [1]: 389 nM | melting point: 131 to 132 °C
Compound: COC[C@@H](C)N1Cc2c(ccc(Cl)c2NC(=O)Cc2ccc(F)c(C(F)(F)F)c2)C1=O [Compound I-21, N-[5-Chloro-2-((R)-2-methoxy-1-methyl-ethyl)-1-oxo-2,3-dihydro-1H-isoindol-4-yl]-2-(4-fluoro-3-trifluoromethyl-phenyl)-acetamide]
